# Columns and labels:
# [1] = system: SW756 (Cervical Carcinoma); test: Bliss excess, mean over the matrix (fraction); higher = more synergy
# Method in brief: (§1)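 Cell lines in DMEM/F12 or RPMI with 10% FBS were plated in 1536-well plates, held 24 hours at 37°C, 5% CO2, then given two-drug dose matrices for 72 hours (DMSO typically 0.2%). Viability was read by CellTiter-Glo 2.0 luminescence and scaled as inhibition from 0 (vehicle wells) to 1 (blank wells). Combination Emax is the second-highest inhibition in the matrix; Bliss excess is observed combination effect minus expected EA + EB − EA·EB, EA and EB being single-agent effects.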
# [2] = system: SW780 (Bladder Carcinoma); test: as above
# Method in brief: as §1
# [3] = system: HT-29 (Colorectal Carcinoma); test: as above
# Method in brief: as §1
# [4] = system: HCC2157 (Breast Carcinoma); test: as above
# Method in brief: as §1
# NCI-H2595 (Mesothelioma) = test: as above
# Method in brief: as §1
# [5] = system: DMS-273 (Small Cell Lung Carcinoma); test: as above
# Method in brief: as §1
# RH-1 (Ewing's Sarcoma) = test: as above
# Method in brief: as §1
# [6] = system: COR-L23 (Non-Small Cell Lung Carcinoma); test: as above
# Method in brief: as §1
# [7] = system: U-266 (Plasma Cell Myeloma); test: as above
# Method in brief: as §1
# [8] = system: C3A (Hepatocellular Carcinoma); test: as above
# Method in brief: as §1
# [9] = system: SW1783 (Low Grade Glioma); test: as above
# Method in brief: as §1
# [10] = system: HPAC (Pancreatic Carcinoma); test: combination Emax (second highest fraction inhibited in the dose matrix, 72 h); higher = more inhibition; extreme values may be limits of the assay
# Method in brief: as §1
# [11] = system: 697 (B-Lymphoblastic Leukemia); test: as above
# Method in brief: as §1
# ES7 (Ewing's Sarcoma) = test: as above
# Method in brief: as §1
# [12] = system: DMS-273 (Small Cell Lung Carcinoma); test: as above
# Method in brief: as §1
# [13] = system: KM-H2 (Hodgkin's Lymphoma); test: as above
# Method in brief: as §1
# [14] = system: U-266 (Plasma Cell Myeloma); test: as above
# Method in brief: as §1
# [15] = system: SUIT-2 (Pancreatic Carcinoma); test: as above
# Method in brief: as §1
# [16] = system: LU-99A (Non-Small Cell Lung Carcinoma); test: as above
# Method in brief: as §1
# [17] = system: JiyoyeP-2003 (Burkitt's Lymphoma); test: as above
# Method in brief: as §1
# 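For Bliss excess, mean over the matrix in this document: after 72 h of two-drug dosing.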
SMILES,Bliss excess [1],Bliss excess [2],Bliss excess [3],Bliss excess [4],Bliss excess (NCI-H2595 (Mesothelioma)),Bliss excess [5],Bliss excess (RH-1 (Ewing's Sarcoma)),Bliss excess [6],Bliss excess [7],Bliss excess [8],Bliss excess [9],combination Emax [10],combination Emax [11],combination Emax (ES7 (Ewing's Sarcoma)),combination Emax [12],combination Emax [13],combination Emax [14],combination Emax [15],combination Emax [16],combination Emax [17]
"C[C@@H](c1ccc2nccn2c1)n1nnc2ncc(-c3cnn(C)c3)nc21 [Savolitinib] + CC1(C)CCC(CN2CCN(c3ccc(C(=O)NS(=O)(=O)c4ccc(NCC5CCOCC5)c([N+](=O)[O-])c4)c(Oc4cnc5[nH]ccc5c4)c3)CC2)=C(c2ccc(Cl)cc2)C1 [Venetoclax] (first compound max 1 µM, 7x7, partner max 1 µM)",-0.0923,-0.0671,-0.0358,0.0068,0.006,-0.0398,-0.0321,-0.0457,-0.0118,-0.0545,-0.0442,0.143,1,0.177,0.239,0.15,0.259,0.168,0.0525,0.162
"COc1cc2c(cc1OCCCCCOc1cc3c(cc1OC)C(=O)N1C=C(C)C[C@H]1C=N3)N=C[C@@H]1CC(C)=CN1C2=O [SG3199] + O=C(c1cc(Cc2n[nH]c(=O)c3ccccc23)ccc1F)N1CCN(C(=O)C2CC2)CC1 [Olaparib] (first compound max 0.001 µM, 7x7, partner max 10 µM)",0.0091,-0.0497,-0.0261,0.0277,-0.0437,0.002,-0.0035,0.0285,-0.0601,-0.0528,-0.0446,0.0597,0.984,0.832,0.308,0.264,0.179,0.187,0.356,0.124
"Cc1c2c(nn1C)CSCc1cc(n(C)n1)CSc1cc(c3ccccc3c1)OCCCc1c(C(=O)O)n(C)c3c-2c(Cl)ccc13 [AZD5991] + C=CCn1c(=O)c2cnc(Nc3ccc(N4CCN(C)CC4)cc3)nc2n1-c1cccc(C(C)(C)O)n1 [AZD1775] (first compound max 1 µM, partner max 1 µM)",-0.013,0.0046,-0.0045,-0.0438,-0.0127,-0.0476,-0.0575,-0.0079,-0.0008,0.0084,,0.857,1,0.732,0.987,0.968,0.99,0.555,0.428,0.987
"CN(CCO)CC[C@H](CSc1ccccc1)Nc1ccc(S(=O)(=O)NC(=O)c2ccc(N3CCC([C@@H](O)c4ccccc4-c4ccc(Cl)cc4)CC3)cc2)cc1S(=O)(=O)C(F)(F)F [AZD4320] + C[C@@H]1COCCN1C2=NC(=NC(=C2)C3(CC3)[S@](=N)(=O)C)C4=C5C=CNC5=NC=C4 [AZD6738] (first compound max 1 µM, 7x7, partner max 10 µM)",-0.0658,-0.0478,-0.0073,0.0014,-0.0222,-0.025,0.0321,-0.0468,-0.0133,-0.016,-0.106,0.897,1,1,0.813,0.909,0.834,0.522,0.838,0.972
"CC1(C)CCC(CN2CCN(c3ccc(C(=O)NS(=O)(=O)c4ccc(NCC5CCOCC5)c([N+](=O)[O-])c4)c(Oc4cnc5[nH]ccc5c4)c3)CC2)=C(c2ccc(Cl)cc2)C1 [Venetoclax] + C1CN(CCC1(C(=O)N[C@@H](CCO)C2=CC=C(C=C2)Cl)N)C3=NC=NC4=C3C=CN4 [Capivasertib] (first compound max 1 µM, 7x7, partner max 3 µM)",-0.0171,-0.0335,-0.0325,-0.0055,-0.0465,0.0443,-0.0353,-0.0525,-0.071,-0.0621,-0.0494,0.148,0.988,0.8,0.743,0.153,0.555,0.129,0.312,0.591
"CN(C)CCCOc1ccc(-c2ccc3ncc4c(c3c2)n(C2CCOCC2)c(=O)n4C)cn1 [AZD0156] + C[C@@H]1COCCN1C2=NC(=NC(=C2)C3(CC3)[S@](=N)(=O)C)C4=C5C=CNC5=NC=C4 [AZD6738] (first compound max 1 µM, 7x7, partner max 10 µM)",-0.0006,-0.0372,-0.0211,0.0548,-0.0438,0.0084,0.0731,0.045,-0.117,0.0318,-0.0435,0.761,1,0.846,0.834,0.821,0.523,0.71,0.784,0.955
"CC(=O)c1c(C)c2cnc(Nc3ccc(N4CCNCC4)cn3)nc2n(C2CCCC2)c1=O [Palbociclib] + CN(CC[C@H](CSC1=CC=CC=C1)NC2=C(C=C(C=C2)S(=O)(=O)NC(=O)C3=CC=C(C=C3)N4CCC(CC4)[C@H](C5=CC=CC=C5C6=CC=C(C=C6)Cl)O)S(=O)(=O)C(F)(F)F)CCO [AZD4320] (first compound max 10 µM, 7x7, partner max 1 µM)",-0.0883,-0.136,-0.0271,0.0149,,-0.106,-0.0674,-0.0608,,-0.0358,,0.497,1,,0.306,0.608,,0.354,0.297,0.795
"C=CCn1c(=O)c2cnc(Nc3ccc(N4CCN(C)CC4)cc3)nc2n1-c1cccc(C(C)(C)O)n1 [AZD1775] + O=C(c1cc(Cc2n[nH]c(=O)c3ccccc23)ccc1F)N1CCN(C(=O)C2CC2)CC1 [Olaparib] (first compound max 1 µM, partner max 10 µM)",-0.0416,-0.0262,-0.0368,-0.0187,-0.0218,-0.0334,0.044,-0.0182,-0.0775,-0.0179,-0.0028,0.649,1,,0.549,0.961,0.763,0.607,0.546,0.915
"CCc1c2c(nc3ccc(O)cc13)-c1cc3c(c(=O)n1C2)COC(=O)[C@]3(O)CC [SN-38] + O=C(c1cc(Cc2n[nH]c(=O)c3ccccc23)ccc1F)N1CCN(C(=O)C2CC2)CC1 [Olaparib] (first compound max 0.3 µM, 7x7, partner max 10 µM)",-0.0109,,0.0396,,0.0184,0.0129,0.102,0.0328,0.0526,0.0041,0.061,0.246,1,1,0.799,,0.367,0.728,0.649,0.947
"CN(CCO)CC[C@H](CSc1ccccc1)Nc1ccc(S(=O)(=O)NC(=O)c2ccc(N3CCC([C@@H](O)c4ccccc4-c4ccc(Cl)cc4)CC3)cc2)cc1S(=O)(=O)C(F)(F)F [AZD4320] + C[C@@H](Nc1cc(F)cc(F)c1)c1cc(C(=O)N(C)C)cc2c(=O)cc(N3CCOCC3)oc12 [AZD8186] (first compound max 1 µM, 7x7, partner max 3 µM)",-0.0213,0.0084,0.0097,0.0774,0.0344,0.0236,0.0588,-0.0063,-0.0077,0.0183,-0.0348,0.562,1,0.991,0.649,,0.481,0.245,0.765,0.789
"Cc1c2c(nn1C)CSCc1cc(n(C)n1)CSc1cc(c3ccccc3c1)OCCCc1c(C(=O)O)n(C)c3c-2c(Cl)ccc13 [AZD5991] + C[C@@H](Nc1cc(F)cc(F)c1)c1cc(C(=O)N(C)C)cc2c(=O)cc(N3CCOCC3)oc12 [AZD8186] (first compound max 1 µM, 7x7, partner max 3 µM)",0.0162,0.0157,-0.012,0.0105,0.0369,-0.0094,,-0.032,-0.0496,-0.0375,0.0037,0.378,0.978,0.95,0.956,0.11,0.894,0.175,0.275,0.718
"COc1nnc2ccc(N3CCC(c4ccc(OCCN5CCN(C)C(=O)[C@H]5C)cc4)CC3)nn12 [AZD5153] + CN(CC[C@H](CSC1=CC=CC=C1)NC2=C(C=C(C=C2)S(=O)(=O)NC(=O)C3=CC=C(C=C3)N4CCC(CC4)[C@H](C5=CC=CC=C5C6=CC=C(C=C6)Cl)O)S(=O)(=O)C(F)(F)F)CCO [AZD4320] (first compound max 1 µM, 7x7, partner max 1 µM)",0.0196,-0.0091,-0.0111,0.0047,,0.0043,-0.0001,-0.0014,,0.0705,,0.713,1,,0.746,0.551,,0.306,0.937,0.893
"C[C@@H](c1ccc2nccn2c1)n1nnc2ncc(-c3cnn(C)c3)nc21 [Savolitinib] + CN(CC[C@H](CSC1=CC=CC=C1)NC2=C(C=C(C=C2)S(=O)(=O)NC(=O)C3=CC=C(C=C3)N4CCC(CC4)[C@H](C5=CC=CC=C5C6=CC=C(C=C6)Cl)O)S(=O)(=O)C(F)(F)F)CCO [AZD4320] (first compound max 1 µM, 7x7, partner max 1 µM)",-0.0319,-0.0468,-0.0245,-0.0331,,-0.0126,0.0096,-0.0349,,-0.0604,,0.343,1,,0.185,0.146,,0.241,0.245,0.439

# — the supplement of paper PMC11061612
